This note sets out measurements from PubChem BioAssay (NCI).

SMILES strings stand for the structures.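 Where inhibition never reached the appropriate level, the endpoint shown equals the highest concentration tested. Otherwise, values were interpolated linearly from a five-concentration, 48-hour dose response in 96-well plates. The concentration for 50% growth inhibition is given as GI50. At the TGI there is no net growth.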

Test systems include BT-549 breast; DU-145 prostate; MCF7 breast; MDA-MB-435; NCI/ADR-RES ovarian.
What all share (experiment): DTP human tumour cell line panel, 48 h

As usually defined, the GI50 is the concentration that inhibits growth by half. A word on the TGI: it is the concentration at which net growth stops. Low readings indicate greater sensitivity of the cells, high ones lower sensitivity of the cells. Turning to `O=C(Nc1ccc(-c2nc3ccc(NC(=O)c4ccc(Cl)cc4)cc3[nH]2)cc1)c1ccc(Cl)cc1`, the GI50 in the assay with BT-549 breast was 6.56 µM; in the assay with DU-145 prostate, 2.43 µM; in the assay with MCF7 breast, 1.23 µM; with MDA-MB-435, 2.36 µM; in the assay on NCI/ADR-RES ovarian, 17 µM. In addition, the TGI with BT-549 breast came out at 20.7 µM; with DU-145 prostate, 7.16 µM; in the assay with MCF7 breast it was 4.91 µM; in the assay with MDA-MB-435, 7.14 µM; in the assay with NCI/ADR-RES ovarian, 64.4 µM.

Take `CCNC1=CC(=O)c2ncccc2C1=O`: the GI50 in the assay with BT-549 breast is 1.54 µM; in the assay on DU-145 prostate, 1.18 µM; in the assay on MCF7 breast, 1.17 µM; with MDA-MB-435 it was 0.4 µM; in the assay on NCI/ADR-RES ovarian it was 3.75 µM. In addition, the TGI in the assay with BT-549 breast is 3.15 µM; with DU-145 prostate it was 2.44 µM; in the assay with MCF7 breast, 3.2 µM; in the assay with MDA-MB-435, 1.5 µM; in the assay on NCI/ADR-RES ovarian, 28.2 µM.

On to `CC(C)=CCC[C@](C)(O)[C@H]1CC[C@]2(C)[C@@H]1CC[C@@H]1[C@@]3(C)CC[C@H](OC(=O)CCC(=O)O)C(C)(C)[C@@H]3CC[C@]12C`, for which the GI50 with BT-549 breast was greater than 100 µM; with DU-145 prostate, 27.5 µM; in the assay with MCF7 breast it was 29.3 µM; in the assay on MDA-MB-435 it was 29.3 µM; with NCI/ADR-RES ovarian, 30.4 µM. The TGI with BT-549 breast, in the assay with DU-145 prostate, in the assay on MCF7 breast, in the assay with MDA-MB-435 and with NCI/ADR-RES ovarian was greater than 100 µM throughout.

On to `Cc1[nH]nc(C(=O)N/N=C/c2cccs2)c1N=NN(C)C`, for which the TGI is 27.3 µM in the assay on BT-549 breast; greater than 100 µM in the assay with DU-145 prostate; 47.4 µM in the assay with MCF7 breast; 57 µM in the assay on MDA-MB-435; greater than 100 µM in the assay on NCI/ADR-RES ovarian.

Regarding `COc1cc([N+](=O)[O-])c2ncccc2c1O`, the GI50 in the assay with BT-549 breast is 21.2 µM; in the assay with DU-145 prostate it was 2.32 µM; with MCF7 breast, 2.96 µM; with MDA-MB-435, 3.53 µM; in the assay on NCI/ADR-RES ovarian, 13.3 µM. For the same molecule, the TGI with BT-549 breast is 87.3 µM; in the assay with DU-145 prostate, 5.73 µM; in the assay with MCF7 breast, greater than 100 µM; in the assay on MDA-MB-435 it was 14.8 µM; in the assay on NCI/ADR-RES ovarian, 86.9 µM.

As to `NC(=O)c1ccc(NC(=O)c2oc3ccccc3c2-c2cnn(-c3ccccc3)c2)cc1`, the GI50 is 3.51 µM in the assay with BT-549 breast, greater than 100 µM in the assay with MCF7 breast and greater than 100 µM in the assay with MDA-MB-435. Moreover, the TGI in the assay with BT-549 breast, in the assay with MCF7 breast and in the assay on MDA-MB-435 was greater than 100 µM in each case.

`C[C@@H]1CC[C@H]2C(CN3CCN(CC4=C(C(F)(F)F)O[C@@H]5O[C@@]6(C)CC[C@H]7[C@H](C)CC[C@@H]4[C@@]57OO6)CC3)=C(C(F)(F)F)O[C@@H]3O[C@@]4(C)CC[C@@H]1[C@]32OO4`: the GI50 with BT-549 breast is 2.53 µM; in the assay with DU-145 prostate, 16.9 µM; with MCF7 breast it was 3.13 µM; in the assay with MDA-MB-435, 1.09 µM; in the assay on NCI/ADR-RES ovarian, greater than 100 µM. For the same molecule, the TGI in the assay with BT-549 breast, with DU-145 prostate, with MCF7 breast, with MDA-MB-435 and with NCI/ADR-RES ovarian was greater than 100 µM in each case.

With `CN(NC(=O)/C(=C/C=C/c1ccccc1)NC(=O)c1ccccc1)C1=C(Cl)C(=O)[N+](c2ccccc2)=CC1`, the TGI was 49.6 µM in the assay on BT-549 breast; greater than 100 µM in the assay on DU-145 prostate; 36.3 µM in the assay on MCF7 breast; 32.9 µM with MDA-MB-435; 53.8 µM in the assay on NCI/ADR-RES ovarian.

For the molecule `CCn1c(-c2cc3ccccc3cc2OC(=O)c2ccccc2)n[nH]c1=S`, the GI50 was 34 µM with BT-549 breast; greater than 50 µM with DU-145 prostate; greater than 50 µM with MCF7 breast; greater than 50 µM in the assay on MDA-MB-435; 23.2 µM in the assay on NCI/ADR-RES ovarian. Moreover, the TGI with BT-549 breast, in the assay on DU-145 prostate, with MCF7 breast, in the assay with MDA-MB-435 and with NCI/ADR-RES ovarian was greater than 50 µM each time.

Take `Cc1cc(I)cc(CN(C)CCCCN2CCCC2)c1O`: the GI50 in the assay with BT-549 breast was 13.6 µM; in the assay on DU-145 prostate it was 35.8 µM; in the assay on MCF7 breast, 16.9 µM; in the assay on MDA-MB-435, 11.1 µM; with NCI/ADR-RES ovarian, 35.2 µM. Besides, the TGI with BT-549 breast is 33.5 µM; in the assay with DU-145 prostate, greater than 100 µM; in the assay on MCF7 breast it was 36.8 µM; in the assay with MDA-MB-435 it was 27.9 µM; with NCI/ADR-RES ovarian, greater than 100 µM.

For the molecule `O=C1CCC(c2ccccc2)(c2ccccc2)CC1`, the TGI in the assay on BT-549 breast, in the assay on DU-145 prostate, in the assay on MCF7 breast, in the assay with MDA-MB-435 and in the assay with NCI/ADR-RES ovarian was greater than 100 µM each time.

For `CCOc1ccc(N2C(N)=NC(N)=NC2(C)C)cc1`, the GI50 is 84.3 µM in the assay with BT-549 breast; 71.9 µM with DU-145 prostate; greater than 100 µM in the assay on MCF7 breast; 38.8 µM in the assay on MDA-MB-435; greater than 100 µM in the assay on NCI/ADR-RES ovarian. Also, the TGI in the assay on BT-549 breast, in the assay with DU-145 prostate, in the assay on MCF7 breast, in the assay on MDA-MB-435 and with NCI/ADR-RES ovarian was greater than 100 µM each time.

Turning to `COc1cc(SC)ccc1C(=O)N1CCCC(C)C1` (stereo unspecified), the GI50 was greater than 100 µM in the assay with BT-549 breast; greater than 100 µM with DU-145 prostate; 79 µM with MCF7 breast; greater than 100 µM in the assay on MDA-MB-435; 70.6 µM with NCI/ADR-RES ovarian. Further, the TGI with BT-549 breast, in the assay with DU-145 prostate, in the assay with MCF7 breast, with MDA-MB-435 and with NCI/ADR-RES ovarian was greater than 100 µM each time.

On to `COc1cc(C=NCC(=O)CSC(c2ccccc2)c2ccccc2)cc(OC)c1OC`, for which the GI50 was 26.5 µM with BT-549 breast; 40.8 µM with DU-145 prostate; 19.8 µM in the assay with MCF7 breast; 25.1 µM in the assay with MDA-MB-435; 7.36 µM in the assay with NCI/ADR-RES ovarian. The TGI with BT-549 breast is 93.9 µM; in the assay with DU-145 prostate it was greater than 100 µM; in the assay on MCF7 breast, greater than 100 µM; in the assay on MDA-MB-435, 80.2 µM; with NCI/ADR-RES ovarian, greater than 100 µM.

As to `CCn1cc(C2NC(=O)c3cc(F)ccc3N2)c2cccc(Cl)c21` (stereo unspecified), the GI50 in the assay on BT-549 breast is 0.327 µM; in the assay on DU-145 prostate it was 0.379 µM; with MCF7 breast, 0.0913 µM; with MDA-MB-435, 0.0367 µM; in the assay with NCI/ADR-RES ovarian, 0.081 µM. The TGI was greater than 100 µM in the assay with BT-549 breast; greater than 100 µM with DU-145 prostate; greater than 100 µM in the assay on MCF7 breast; 0.142 µM in the assay with MDA-MB-435; 0.75 µM in the assay with NCI/ADR-RES ovarian.
